Measured values published in ChEMBL document CHEMBL1136585, “Inhibition of inosine monophosphate dehydrogenase (IMPDH) by 2-[2-(Z)-fluorovinyl]inosine 5'-monophosphate” (Bioorg Med Chem Lett, 2003).

Experiments:
[1] = biological target: Inosine-5'-monophosphate dehydrogenase (Escherichia coli); assay: Inhibition of IMPDH (Inosine 5''-monophosphate dehydrogenase)from Escherichia coli B3 cells
[2] = system: Inosine-5'-monophosphate dehydrogenase (Escherichia coli); assay: as above; remark: listed apart in the source

Compound | Ki [1] [µM] | K inact [2] [s⁻¹]
O=P(O)(O)OC[C@H]1O[C@@H](n2cnc3c(Cl)ncnc32)[C@H](O)[C@@H]1O | 62 | –
O=P(O)(O)OC[C@H]1OC(n2cnc3c(O)nc(/C=C/F)nc32)[C@H](O)C1O (single isomer, unassigned) | 1.11 | 0.0269
